From patent US20230174649A1, “PHARMACEUTICAL COMPOSITIONS CONTAINING ANTI-CD47 ANTIBODIES” (I-MAB BIOPHARMA US LIMITED, priority 2020, published 2023)
Where “and” joins values, the source holds several entries; their conditions need not be identical. Equal values may be shown once.

Assays:
Assay type in all cases: cell-based, Human
[1] = tested on: macrophages; assay: Macrophage Viability Assay (CellTiter-Glo); details: for Macrophage viability (CellTiter-Glo Luminescent Cell Viability Assay): 16 hours, three replicate lines
Protocol: Then, the monocytes isolated by MACS were subsequently cultured in fresh complete medium supplemented with recombinant human granulocyte-macrophage colony-stimulating factor GM-CSF (50 ng/ml) and human recombinant IL-4 (35 ng/ml) to activate differentiated macrophages. After 6 days of culture (on day 7), cells were harvested, pooled together and counted for next use.
The cells from Example 2 were plated into a 96-well flat bottom plate at a density of 0.05×10^6 cells/well. After 2 hours of incubation, the macrophages were well attached to the plate. Then selected small molecule therapeutic agents were added to the well and cocultured for 16 hours. On day 8, macrophage viability was assessed by CellTiter-Glo® Luminescent Cell Viability Assay, according to the manufacture's instruction.

[2] = tested on: CD47; assay: FACS analysis of expression level of CD47 on tumor cell surface; details: Toledo cells; for Mean Fluorescence Intensity (MFI) CD47: 12 hours
Protocol: (§1) For FACS analysis, on the day of analysis (day 1), Toledo cells were seeded into 96 well plate and cultured at a density of 0.2×10^6 cells/well. Then the cells were treated with the selected small molecule therapeutic agents for 12 hours.
(§2) On day 2, cells were harvested, washed twice and then re-suspended in 100 uL FACS buffer subject to FACS analysis. For detection of the expression of calreticulin and CD47, cells were incubated with anti-calreticulin antibody and commercially available anti-CD47 antibody (BD Biosciences, Catalog number: 561249) in dark at 4° C. for 30 mins.
(§3) Then, the cells were subject to FACS analysis. Data was acquired and analyzed.

[3] = tested on: Calreticulin; assay: FACS analysis of expression level of calreticulin on tumor cell surface; details: Toledo cells; for Mean Fluorescence Intensity (MFI) Calreticulin: 12 hours
Protocol: as §1, §2, §3

| SMILES | Macrophage viability (CellTiter-Glo Luminescent Cell Viability Assay) ([1]; Cpd 0.002 uM) | Macrophage viability (CellTiter-Glo Luminescent Cell Viability Assay) ([1]; Cpd 0.008 uM) | Macrophage viability (CellTiter-Glo Luminescent Cell Viability Assay) ([1]; Cpd 0.04 uM) | Macrophage viability (CellTiter-Glo Luminescent Cell Viability Assay) ([1]; Cpd 0.2 uM) | Macrophage viability (CellTiter-Glo Luminescent Cell Viability Assay) ([1]; Cpd 1 uM) | Macrophage viability (CellTiter-Glo Luminescent Cell Viability Assay) ([1]; Cpd 5 uM) | Macrophage viability (CellTiter-Glo Luminescent Cell Viability Assay) ([1]; Cpd 25 uM) | Macrophage viability (CellTiter-Glo Luminescent Cell Viability Assay) ([1]; Cpd 50 uM) | Mean Fluorescence Intensity (MFI) CD47 ([2]; 0.008 uM) | Mean Fluorescence Intensity (MFI) CD47 ([2]; 0.04 uM) | Mean Fluorescence Intensity (MFI) CD47 ([2]; 0.2 uM) | Mean Fluorescence Intensity (MFI) CD47 ([2]; 1 uM) | Mean Fluorescence Intensity (MFI) CD47 ([2]; 5 uM) | Mean Fluorescence Intensity (MFI) Calreticulin ([3]; 0.008 uM) | Mean Fluorescence Intensity (MFI) Calreticulin ([3]; 0.04 uM) | Mean Fluorescence Intensity (MFI) Calreticulin ([3]; 0.2 uM) | Mean Fluorescence Intensity (MFI) Calreticulin ([3]; 1 uM) | Mean Fluorescence Intensity (MFI) Calreticulin ([3]; 5 uM) | toxicity to macrophages ([1]; dose of 0.1-50 μM) | other results |
| --- | --- | --- | --- | --- | --- | --- | --- | --- | --- | --- | --- | --- | --- | --- | --- | --- | --- | --- | --- | --- |
| C=CC(=O)N1CCC[C@@H](n2nc(-c3ccc(Oc4ccccc4)cc3)c3c(N)ncnc32)C1 [Ibrutinib] | 4948 and 4988 and 5520 | 4880 and 5316 and 5780 | 4688 and 5488 and 5780 | 4932 and 5736 and 6152 | 5056 and 5624 and 6224 | 4864 and 5828 and 6004 | 4680 and 5100 and 5572 | 3732 and 4296 and 4508 | 8453 | 8490 | 8415 | 8345 | 8345 | 70.6 | 73.1 | 74.5 | 69.9 | 79 |  | toxicity to macrophages ([1]; dose as high as 50 μM): showed toxicity; toxicity to macrophages ([1]; dose lower than 10 μM): little toxic |
| CC[C@H](Nc1ncnc2[nH]cnc12)c1nc2cccc(F)c2c(=O)n1-c1ccccc1 [Idelalisib] | 5888 and 5908 and 5980 | 6164 and 6056 and 5948 | 6144 and 6304 and 5916 | 6040 and 6048 and 6220 | 5376 and 5640 and 5744 | 5092 and 5220 and 5060 | 4508 and 4884 and 4908 | 4404 and 4648 and 4964 | 8342 | 8538 | 8246 | 8465 | 8263 | 69.4 | 72.9 | 70.6 | 77.6 | 75.8 | obvious toxicity |  |
| COc1c(OCCCN2CCOCC2)ccc2c1N=C(NC(=O)c1cnc(N)nc1)N1CCN=C21 [Copanlisib] | 5856 and 5928 and 6000 | 5272 and 4772 and 5388 | 4856 and 5120 and 4872 | 4572 (2×) and 4928 | 4156 and 4492 and 4368 | 3780 and 4352 and 4196 | 4108 and 4176 and 4248 | 2748 and 3032 and 3028 | 8024 | 8243 | 7844 | 7097 | 6803 | 69.8 | 77 | 79.4 | 106 | 142 | obvious toxicity | effect on CD47 expression level [2]: only slightly inhibited; effect on expression level of Calreticulin [3]: only slightly increased |
| C[C@H](Nc1ncnc2nc[nH]c12)c1cc2cccc(Cl)c2c(=O)n1-c1ccccc1 [Duvelisib] | 5688 and 5876 and 6184 | 5484 and 5444 and 5664 | 5228 and 5348 and 5760 | 5028 and 4984 and 5264 | 4592 and 4776 and 4880 | 4464 and 4584 and 4404 | 4176 and 4276 and 4156 | 3972 and 3992 and 3860 | 8368 | 8376 | 8471 | 8432 | 8482 | 71.4 | 71.2 | 71.4 | 75.7 | 75.9 | obvious toxicity |  |
